Values joined by “and” are separate entries in the source; they are usually repeats but may differ in a detail not shown here. Equal entries are not always repeated.
What was measured:
[1] = Cytotoxicity against Vero cells (MTT assay); type: cell-based; conditions: African green monkey
Method: We prepared the stock solutions of the tested compounds (10 mg/mL) in DMSO (Sigma, St. Louis, MO, USA). For the MTT assay and further studies of anti-HSV-1 activity, we diluted the stock solutions with DMEM so that the final concentration of DMSO was 0.5%.
We used MTT assay to determine the cytotoxic effect of the tested compounds against Vero cells. We performed the MTT assay as previously described.

[2] = system: PQ-treated Neuro-2a cells; test: ROS analysis in PQ-treated cells (H2DCF-DA); type: cell-based, murine; conditions: PQ 1 mM
Method: We previously studied the effect of stilbens 9, 10, 11, and 13 on cell viability and ROS level in PQ-treated Neuro-2a cells. Here, we evaluated the neuroprotective potential against the toxic effect of PQ of stilbene 1, flavonoid 6 and isoflavonoids 2–5, 7, 12 (Figure 7a–d).
Figure 7 The effect of polyphenolic compounds isolated from M. amurensis heartwood on cell viability (a–c) and ROS levels (d) in Neuro-2a cells treated with PQ (1 mM). Polyphenolic compounds isolated from M. amurensis heartwood were used at concentrations 10, 1, 0.1 μM. The data are presented as means ± SEM of three independent replicates. (*), (**), and (***) indicate, respectively, p < 0.05, p < 0.005, and p < 0.001 versus PQ-treated cells.
After 24 h of adhesion, Neuro-2a cells (5 × 10^4 cells/mL) were incubated with polyphenolic compounds at concentrations of 0.1, 1, and 10 µM for 1 h. Then, 120 µM of 6-OHDA or 1 mM of PQ were added to each well, and cells were incubated for 1 h. To study the ROS formation, 20 µL of 2,7-dichlorodihydrofluorescein diacetate solution (H2DCF-DA, Sigma-Aldrich, St. Louis, MO, USA) were added to each well, so that the final concentration was 10 µM. Then, the microplate was incubated for 30 min at 37 °C.

[3] = system: HSV-1; test: Pretreatment of cells with polyphenolic compounds, CPE inhibition assay; type: cell-based, HSV-1 strain L2; conditions: for IC50: Human alphaherpesvirus 1, cells pretreated 2 h before infection, CPE assay; for Pretreatment of Cells SI: ratio of CC50 to IC50
Method: (§1) In order to study the mechanism of action of these compounds, two additional schemes of treatment of the virus and Vero cells with polyphenols were applied: the compounds were added before virus infection (pretreatment of cells) and after penetration of the virus into host cells (treatment of infected cells). The fourth method of exposure where the virus and polyphenols were added to cells simultaneously (simultaneous treatment) was previously described by us in [22]. The anti-HSV-1 activity of polyphenols was assessed using the cytopathic effect inhibition (CPE) assay.
The monolayer of cells was pretreated with different concentrations of the studied compounds for 2 h at 37 °C. After washing, the cells were infected with 100 TCID50/mL of the virus at 37 °C for 1 h. Then, unabsorbed virus was removed by washing with PBS (Sigma, Saint-Louis, MO, USA), and cells were incubated in the maintenance medium until CPE appeared.

[4] = system: HSV-1; test: Treatment of virus-infected cells with polyphenols, CPE inhibition assay; type: cell-based, HSV-1 strain L2; conditions: for IC50: Human alphaherpesvirus 1, compound added after virus adsorption and penetration, CPE assay; for Treatment of Infected Cells SI: ratio of CC50 to IC50
Method: as §1
The monolayer of cells was infected with the virus (100 TCID50/mL) at 37 °C for 1 h, and then the cells were washed with PBS (Sigma, Saint-Louis, MO, USA) and treated with different concentrations of the studied compounds and incubated until CPE appeared.

Structure (SMILES)	CC50 [1]	effect on ROS level in PQ-treated Neuro-2a cells (in words) [2]	IC50 [3]	Pretreatment of Cells SI [3]	IC50 [4]	Treatment of Infected Cells SI [4]
Oc1ccc(/C=C/c2cc(O)cc(O)c2)cc1 [Compound 1, resveratrol]	123 µg/mL and 540 µM					
O=C1C[C@@H](c2ccc(O)cc2)Oc2cc(O)ccc21 [Compound 6, liquiritigenin]		effectively reduced the ROS level				
Oc1cc(O)cc(/C=C/c2ccc3c(c2)O[C@H](c2cc(O)cc(O)c2)[C@@H](c2ccc(O)c(O)c2)O3)c1 [Compound 9, maackin]			70.3 µg/mL and 145 µM	3.8 and 3.8 ± 0.5	24.5 µg/mL and 50.4 µM	11.0 ± 1.4
Oc1ccc(/C=C/c2cc(O)cc3c2[C@H](c2cc(O)cc(O)c2)[C@@H](c2ccc(O)c(O)c2)O3)cc1 [Compound 13, scirpusin A]	424 ± 50.1 µM		47.2 µg/mL and 100 µM	4.2 and 4.2 ± 0.6	20.2 µg/mL and 43 µM	9.8 ± 1.2

— publication PMC11050087, “Polyphenols from Maackia amurensis Heartwood Protect Neuronal Cells from Oxidative Stress and Prevent Herpetic Infection” (International Journal of Molecular Sciences, 2024)
